Test results from US20140206681A1, “BTK INHIBITORS” (priority 2013, published 2014).

How the values were obtained:
HeLa cells = experiment: [3H]Adenosine uptake functional cellular assay; format: cell-based; details: Homo sapiens, HeLa, accumulation of [3H]adenosine into HeLa cells; compound range 10 μM to […]; read-out: Adenosine uptake inhibition IC50
Protocol: Compounds are also screened in an adenosine uptake functional cellular assay using the protocol described below. The adenosine uptake inhibition assay may be used to identify compounds with the potential for a negative cardiovascular side effect.
Adenosine uptake activity was determined by monitoring the accumulation of tritiated adenosine into HeLa cells (ATCC catalog # CCL-2) using a PMT-based radiometric detection instrument. […] These cells were incubated overnight at 37° C. in a humidified atmosphere with 5% (v/v) CO2. After this time the growth medium was removed and replaced with 40 μL assay medium comprising: Hanks balanced salts solution (HBSS; Thermo Fisher Catalog # SH30268.01)+5% (v/v) FBS. […] 40 μL of compound in the assay medium was dispensed into individual wells of the Cytostar-T plates and the plates were incubated for 30 minutes under ambient laboratory conditions. Following this incubation, 20 μL of 500 nM [^3H]adenosine (American Radiolabeled Chemicals Inc. Catalog # ART0287) was added in the assay medium and incubated for a further 60 minutes under ambient laboratory conditions. The amount of radiolabel accumulation was then determined using a Perkin Elmer Topcount NXT microplate reader. In brief, HeLa cells adhere to the bottom of the Cytostar-T plate, uptake of [^3H]adenosine into these cells brings the radiolabel into sufficient proximity to excite the scintillant in the base of the plates. These events are captured by single PMT, time-resolved coincidence counting. IC50 values were determined by 4 parameter robust fit of counts per second values vs. (Log10) compound concentrations.

[1] = target: T1, BTK enzyme (recombinant full-length BTK, hBTK) (Homo sapiens, UniProt Q06187); experiment: BTK enzyme activity assay, LANCE TR-FRET; format: biochemical; details: 50 pM hBTK, 2 μM biotin-A5-peptide, 25 μM ATP; 60 min compound & enzyme incubation; read-out: IC50 BTK activity value
T1 construct: recombinant protein from baculovirus-transfected Sf9 cells: full-length BTK, 6HIS-tag cleaved; 6HIS (cleaved yes); made in house; host or cells: baculovirus-transfected Sf9 cells
T1 sequence (Q06187 whole entry): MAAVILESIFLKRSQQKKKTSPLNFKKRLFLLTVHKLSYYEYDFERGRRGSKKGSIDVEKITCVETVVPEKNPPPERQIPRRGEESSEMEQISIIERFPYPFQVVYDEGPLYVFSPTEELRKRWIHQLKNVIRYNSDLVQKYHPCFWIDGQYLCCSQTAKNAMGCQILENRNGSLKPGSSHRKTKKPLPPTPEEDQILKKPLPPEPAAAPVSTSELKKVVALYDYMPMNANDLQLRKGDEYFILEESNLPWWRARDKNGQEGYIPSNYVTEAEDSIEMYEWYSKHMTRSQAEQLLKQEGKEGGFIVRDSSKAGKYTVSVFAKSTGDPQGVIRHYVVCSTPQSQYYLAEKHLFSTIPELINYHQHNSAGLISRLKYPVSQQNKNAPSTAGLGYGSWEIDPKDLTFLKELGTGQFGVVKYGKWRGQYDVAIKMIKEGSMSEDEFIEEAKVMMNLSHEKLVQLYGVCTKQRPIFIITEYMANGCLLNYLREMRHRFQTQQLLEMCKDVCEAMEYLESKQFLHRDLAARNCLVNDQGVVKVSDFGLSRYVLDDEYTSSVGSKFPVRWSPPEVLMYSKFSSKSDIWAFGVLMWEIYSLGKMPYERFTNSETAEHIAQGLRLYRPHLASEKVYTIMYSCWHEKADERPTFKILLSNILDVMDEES

Compound | IC50 (HeLa cells) [nM] | IC50 [1] [nM]
CN1CC(=O)N2C[C@H](c3nc(-c4ccc(C(=O)Nc5cc(C(F)(F)F)ccn5)cc4)c4c(N)nccn34)CC[C@H]2C1 [Example 50, 4-{8-amino-3-[(7R,9aS)-2-methyl-4-oxooctahydro-2H-pyrido[1,2-a]pyrazin-7-yl]imidazo[1,5-a]pyrazin-1-yl}-N-[4-(trifluoromethyl)pyridin-2-yl]benzamide] | 45.1 | 0.26
CN1CC(=O)N2C[C@@H](c3nc(-c4ccc(C(=O)Nc5cc(C(F)(F)F)ccn5)cc4)c4c(N)nccn34)CC[C@@H]2C1 [Example 51, 4-{8-amino-3-[(7S,9aR)-2-methyl-4-oxooctahydro-2H-pyrido[1,2-a]pyrazin-7-yl]imidazo[1,5-a]pyrazin-1-yl}-N-[4-(trifluoromethyl)pyridin-2-yl]benzamide] | 188 | 1.6
Nc1nccn2c([C@H]3CC[C@@H]4COCCN4C3)nc(-c3ccc(C(=O)Nc4cc(C(F)(F)F)ccn4)cc3)c12 [Example 56, 4-{8-amino-3-[(7S,9aR)-octahydropyrido[2,1-c][1,4]oxazin-7-yl]imidazo[1,5-a]pyrazin-1-yl}-N-[4-(trifluoromethyl)pyridin-2-yl]benzamide] | 114 | 1.8
Nc1nccn2c([C@H]3CC[C@H]4CNCC(=O)N4C3)nc(-c3ccc(C(=O)Nc4cc(C(F)(F)F)ccn4)cc3)c12 [Example 57, 4-{8-amino-3-[(7S,9aS)-4-oxooctahydro-2H-pyrido[1,2-a]pyrazin-7-yl]imidazo[1,5-a]pyrazin-1-yl}-N-[4-(trifluoromethyl)pyridin-2-yl]benzamide] | ≥ 10000 | 0.28
CNc1nccn2c([C@@H]3CC[C@H]4CCC(=O)N4C3)nc(-c3ccc(C(=O)Nc4cc(C(F)(F)F)ccn4)cc3)c12 [Example 60, 4-{8-(methylamino)-3-[(6R,8aS)-3-oxooctahydroindolizin-6-yl]imidazo[1,5-a]pyrazin-1-yl}-N-[4-(trifluoromethyl)pyridin-2-yl]benzamide] | 44.1 | 12.7
CCNC(=O)Nc1nccn2c([C@@H]3CC[C@H]4CCC(=O)N4C3)nc(-c3ccc(C(=O)Nc4cc(C(F)(F)F)ccn4)cc3)c12 [Example 61, 4-{8-[(ethylcarbamoyl)amino]-3-[(6R,8aS)-3-oxooctahydroindolizin-6-yl]imidazo[1,5-a]pyrazin-1-yl}-N-[4-(trifluoromethyl)pyridin-2-yl]benzamide] | 19.2 | 17.7
Nc1nccn2c([C@@H]3CC[C@H]4CN(CCO)CC(=O)N4C3)nc(-c3ccc(C(=O)Nc4cc(C(F)(F)F)ccn4)cc3)c12 [Example 66, 4-{8-amino-3-[(7R,9aS)-2-(2-hydroxyethyl)-4-oxooctahydro-2H-pyrido[1,2-a]pyrazin-7-yl]imidazo[1,5-a]pyrazin-1-yl}-N-[4-(trifluoromethyl)pyridin-2-yl]benzamide] | 206 | 0.13
CCOc1cc(C(=O)Nc2cc(C(F)(F)F)ccn2)ccc1-c1nc([C@@H]2CC[C@H]3CCC(=O)N3C2)n2ccnc(N)c12 [Example 69, 4-{8-amino-3-[(6R,8aS)-3-oxooctahydroindolizin-6-yl]imidazo[1,5-a]pyrazin-1-yl}-3-ethoxy-N-[4-(trifluoromethyl)pyridin-2-yl]benzamide] | 1440 | 0.16
Nc1nccn2c([C@@H]3CC[C@H]4CCC(=O)N4C3)nc(-c3ccc(C(=O)Nc4cc(C(F)(F)F)ccn4)cc3OC(F)F)c12 [Example 71, 4-{8-amino-3-[(6R,8aS)-3-oxooctahydroindolizin-6-yl]imidazo[1,5-a]pyrazin-1-yl}-3-(difluoromethoxy)-N-[4-(trifluoromethyl)pyridin-2-yl]benzamide] | 732 | 0.48

Continued, values first:

IC50 (HeLa cells) [nM] | IC50 [1] [nM] | Compound
71.3 | 0.53 | C[C@@H]1OC(=O)N2C[C@H](c3nc(-c4ccc(C(=O)Nc5cc(C6CC6)ccn5)cc4)c4c(N)nccn34)CC[C@@H]12 [Example 46, 4-{8-amino-3-[(1S,6R,8aS)-1-methyl-3-oxohexahydro[1,3]oxazolo[3,4-a]pyridin-6-yl]imidazo[1,5-a]pyrazin-1-yl}-N-(4-cyclopropylpyridin-2-yl)benzamide]
31.8 | 0.17 | C[C@H]1OC(=O)N2C[C@H](c3nc(-c4ccc(C(=O)Nc5cc(C6CC6)ccn5)cc4)c4c(N)nccn34)CC[C@@H]12 [Example 47, 4-{8-amino-3-[(1R,6R,8aS)-1-methyl-3-oxohexahydro[1,3]oxazolo[3,4-a]pyridin-6-yl]imidazo[1,5-a]pyrazin-1-yl}-N-(4-cyclopropylpyridin-2-yl)benzamide]
92.6 | 0.14 | C[C@@H]1OC(=O)N2C[C@H](c3nc(-c4ccc(C(=O)Nc5cc(C(F)(F)F)ccn5)cc4)c4c(N)nccn34)CC[C@@H]12 [Example 48, 4-{8-amino-3-[(1S,6R,8aS)-1-methyl-3-oxohexahydro[1,3]oxazolo[3,4-a]pyridin-6-yl]imidazo[1,5-a]pyrazin-1-yl}-N-[4-(trifluoromethyl)pyridin-2-yl]benzamide]
51.8 | 0.11 | C[C@H]1OC(=O)N2C[C@H](c3nc(-c4ccc(C(=O)Nc5cc(C(F)(F)F)ccn5)cc4)c4c(N)nccn34)CC[C@@H]12 [Example 49, 4-{8-amino-3-[(1R,6R,8aS)-1-methyl-3-oxohexahydro[1,3]oxazolo[3,4-a]pyridin-6-yl]imidazo[1,5-a]pyrazin-1-yl}-N-[4-(trifluoromethyl)pyridin-2-yl]benzamide]
50.1 | 0.13 | CC1(C)OC(=O)N2C[C@H](c3nc(-c4ccc(C(=O)Nc5cc(C(F)(F)F)ccn5)cc4)c4c(N)nccn34)CC[C@H]21 [Example 52, 4-{8-amino-3-[(6R,8aS)-1,1-dimethyl-3-oxohexahydro[1,3]oxazolo[3,4-a]pyridin-6-yl]imidazo[1,5-a]pyrazin-1-yl}-N-[4-(trifluoromethyl)pyridin-2-yl]benzamide]
296 | 0.5 | COc1cc(C(=O)Nc2cc(C3CC3)ccn2)ccc1-c1nc([C@@H]2CC[C@H]3[C@@H](C)OC(=O)N3C2)n2ccnc(N)c12 [Example 53, 4-{8-amino-3-[(1R,6R,8aS)-1-methyl-3-oxohexahydro[1,3]oxazolo[3,4-a]pyridin-6-yl]imidazo[1,5-a]pyrazin-1-yl}-N-(4-cyclopropylpyridin-2-yl)-3-methoxybenzamide]
811 | 4.1 | Nc1nccn2c([C@H]3CC[C@@H]4C[C@H](O)C(=O)N4C3)nc(-c3ccc(C(=O)Nc4cc(C(F)(F)F)ccn4)cc3)c12 [Example 58, 4-{8-amino-3-[(2S,6S,8aR)-2-hydroxy-3-oxooctahydroindolizin-6-yl]imidazo[1,5-a]pyrazin-1-yl}-N-[4-(trifluoromethyl)pyridin-2-yl]benzamide]
398 | 0.13 | Nc1nccn2c([C@@H]3CC[C@H]4C[C@@H](O)C(=O)N4C3)nc(-c3ccc(C(=O)Nc4cc(C(F)(F)F)ccn4)cc3)c12 [Example 59, 4-{8-amino-3-[(2R,6R,8aS)-2-hydroxy-3-oxooctahydroindolizin-6-yl]imidazo[1,5-a]pyrazin-1-yl}-N-[4-(trifluoromethyl)pyridin-2-yl]benzamide]
114 | 0.77 | C[C@H]1CC(=O)N2C[C@H](c3nc(-c4ccc(C(=O)Nc5cc(C(F)(F)F)ccn5)cc4)c4c(N)nccn34)CC[C@H]12 [Example 64, 4-{8-amino-3-[(1S,6R,8aR)-1-methyl-3-oxooctahydroindolizin-6-yl]imidazo[1,5-a]pyrazin-1-yl}-N-[4-(trifluoromethyl)pyridin-2-yl]benzamide]
410 | 3.7 | Nc1nccn2c([C@H]3CC[C@@H]4C[C@@H](O)C(=O)N4C3)nc(-c3ccc(C(=O)Nc4cc(C(F)(F)F)ccn4)cc3)c12 [Example 67, 4-{8-amino-3-[(2R,6S,8aR)-2-hydroxy-3-oxooctahydroindolizin-6-yl]imidazo[1,5-a]pyrazin-1-yl}-N-[4-(trifluoromethyl)pyridin-2-yl]benzamide]
430 | 0.081 | Nc1nccn2c([C@@H]3CC[C@H]4C[C@H](O)C(=O)N4C3)nc(-c3ccc(C(=O)Nc4cc(C(F)(F)F)ccn4)cc3)c12 [Example 68, 4-{8-amino-3-[(2S,6R,8aS)-2-hydroxy-3-oxooctahydroindolizin-6-yl]imidazo[1,5-a]pyrazin-1-yl}-N-[4-(trifluoromethyl)pyridin-2-yl]benzamide]
973 | 0.93 | Nc1nccn2c([C@H]3CC[C@H]4C[C@@H](O)C(=O)N4C3)nc(-c3ccc(C(=O)Nc4cc(C(F)(F)F)ccn4)cc3)c12 [Example 73, 4-{8-amino-3-[(2R,6S,8aS)-2-hydroxy-3-oxooctahydroindolizin-6-yl]imidazo[1,5-a]pyrazin-1-yl}-N-[4-(trifluoromethyl)pyridin-2-yl]benzamide]
